Data taken from ChEMBL document CHEMBL1141727, “Isolation and cytotoxic evaluation of marine sponge-derived norterpene peroxides” (J Nat Prod, 1998).

Key:
Type in all cases: functional
CAKI-1 = experiment: Growth inhibition of human Caki1 cells
IGROV-1 = experiment: Growth inhibition of human IGROV1 cells
Malme-3M = experiment: Growth inhibition of human MALME-3M cells
SF-539 = experiment: Growth inhibition of human SF539 cells
UO-31 = experiment: Growth inhibition of human UO31 cells
SK-OV-3 = experiment: Growth inhibition of human SKOV3 cells
L1210 = experiment: Growth inhibition of mouse L1210 cells assessed as zone units at 50 ug/disk by disk diffusion agar colony formation assay
UACC-62 = experiment: Growth inhibition of human UACC62 cells
P388 = experiment: Growth inhibition of mouse P388 cells assessed as zone units at 50 ug/disk by disk diffusion agar colony formation assay
HCC 2998 = experiment: Growth inhibition of human HCC2998 cells
NCI-H322M = experiment: Growth inhibition of human NCI-H322M cells
SK-MEL-28 = experiment: Growth inhibition of human SK-MEL-28 cells
786-0 = experiment: Growth inhibition of human 786-0 cells
HL-60(TB) = experiment: Growth inhibition of human HL-60(TB) cells
[1] = Growth inhibition of human […] cells
SNB-75 = experiment: Growth inhibition of human SNB75 cells
MOLT-4 = experiment: Growth inhibition of human MOLT4 cells
KM12 = experiment: Growth inhibition of human KM12 cells
CCRF-CEM = experiment: Growth inhibition of human CCRF-CEM cells
BT-549 = experiment: Growth inhibition of human BT549 cells
SK-MEL-5 = experiment: Growth inhibition of human SK-MEL-5 cells
A498 = experiment: Growth inhibition of human A498 cells
[2] = Growth inhibition of mouse M17/ADR cells assessed as zone units at 50 ug/disk by disk diffusion agar colony formation assay
OVCAR-5 = experiment: Growth inhibition of human OVCAR5 cells
HCT-116 = experiment: Growth inhibition of human HCT116 cells
SF-295 = experiment: Growth inhibition of human SF295 cells
[3] = Growth inhibition of human MCF7/ADR resistant cells; conditions: NCI/ADR-RES
SW-620 = experiment: Growth inhibition of human SW620 cells
HT-29 = experiment: Growth inhibition of human HT-29 cells
NCI-H226 = experiment: Growth inhibition of human NCI-H226 cells
MCF7 = experiment: Growth inhibition of human MCF7 cells
A549 = experiment: Growth inhibition of human A549 cells
DU-145 = experiment: Growth inhibition of human DU145 cells
SR = experiment: Growth inhibition of human SR cells
NCI-H522 = experiment: Growth inhibition of human NCI-H522 cells
RXF 393 = experiment: Growth inhibition of human […] cells
[4] = Growth inhibition of human H116 cells assessed as zone units at 50 ug/disk by disk diffusion agar colony formation assay
NCI-H460 = experiment: Growth inhibition of human NCI-H460 cells
MDA-MB-435 = experiment: Growth inhibition of human MDA-MB-435 cells
HOP-62 = experiment: Growth inhibition of human HOP62 cells
SN12C = experiment: Growth inhibition of human SN12C cells
MDA-MB-231 = experiment: Growth inhibition of human MDA-MB-231 cells
OVCAR-4 = experiment: Growth inhibition of human OVCAR4 cells
MDA-N = experiment: Growth inhibition of human MDA-N cells
T47D = experiment: Growth inhibition of human T47D cells
HCT-15 = experiment: Growth inhibition of human HCT15 cells
PO3 = experiment: Growth inhibition of mouse PO3 cells assessed as zone units at 50 ug/disk by disk diffusion agar colony formation assay
EKVX = experiment: Growth inhibition of human EKVX cells
SK-MEL-2 = experiment: Growth inhibition of human SK-MEL-2 cells
M14 = experiment: Growth inhibition of human M14 cells
UACC-257 = experiment: Growth inhibition of human UACC257 cells
U-251 = experiment: Growth inhibition of human U251 cells
NCI-H23 = experiment: Growth inhibition of human NCI-H23 cells
OVCAR-3 = experiment: Growth inhibition of human OVCAR-3 cells
HOP-92 = experiment: Growth inhibition of human HOP92 cells
COLO 205 = experiment: Growth inhibition of human COLO205 cells
[5] = Growth inhibition of human Hs 578T cells
ACHN = experiment: Growth inhibition of human ACHN cells
OVCAR-8 = experiment: Growth inhibition of human OVCAR8 cells
PC-3 = experiment: Growth inhibition of human PC3 cells
LOX IMVI = experiment: Growth inhibition of human LOXIMVI cells
MC-38 = experiment: Growth inhibition of mouse C38 cells assessed as zone units at 50 ug/disk by disk diffusion agar colony formation assay
SNB-19 = experiment: Growth inhibition of human SNB19 cells
K562 = experiment: Growth inhibition of human K562 cells
TK-10 = experiment: Growth inhibition of human TK10 cells
CX-1 = experiment: Growth inhibition of human CX-1 cells assessed as zone units at 50 ug/disk by disk diffusion agar colony formation assay

C=C1CCCC(C)(C)C1CC[C@]1(C)CC[C@@H]([C@@H](C)C(=O)O)OO1 (stereo partly specified) [EPINUAPAPUIN B]
GI50 (CAKI-1): > 10000 nM
GI50 (IGROV-1): 1730 nM
GI50 (Malme-3M): 3960 nM
GI50 (SF-539): > 10000 nM
GI50 (UO-31): > 10000 nM
GI50 (SK-OV-3): > 10000 nM
Activity (L1210): 160 Zone units
GI50 (UACC-62): > 10000 nM
Activity (P388): 160 Zone units
GI50 (HCC 2998): > 10000 nM
GI50 (NCI-H322M): > 10000 nM
GI50 (SK-MEL-28): > 10000 nM
GI50 (786-0): > 10000 nM
GI50 (HL-60(TB)): 2060 nM
GI50 [1]: > 10000 nM
GI50 (SNB-75): > 10000 nM
GI50 (MOLT-4): 7430 nM
GI50 (KM12): 5730 nM
GI50 (CCRF-CEM): 2270 nM
GI50 (BT-549): > 10000 nM
GI50 (SK-MEL-5): > 10000 nM
GI50 (A498): > 10000 nM
Activity [2]: 210 Zone units
GI50 (OVCAR-5): > 10000 nM
GI50 (HCT-116): > 10000 nM
GI50 (SF-295): > 10000 nM
GI50 [3]: > 10000 nM
GI50 (SW-620): > 10000 nM
GI50 (HT-29): > 10000 nM
GI50 (NCI-H226): > 10000 nM
GI50 (MCF7): > 10000 nM
GI50 (A549): > 10000 nM
GI50 (DU-145): > 10000 nM
GI50 (SR): 2720 nM
GI50 (NCI-H522): 2060 nM
GI50 (RXF 393): > 10000 nM
Activity [4]: 70 Zone units
GI50 (NCI-H460): > 10000 nM
GI50 (MDA-MB-435): > 10000 nM
GI50 (HOP-62): 9540 nM
GI50 (SN12C): > 10000 nM
GI50 (MDA-MB-231): > 10000 nM
GI50 (OVCAR-4): > 10000 nM
GI50 (MDA-N): > 10000 nM
GI50 (T47D): > 10000 nM
GI50 (HCT-15): > 10000 nM
Activity (PO3): 60 Zone units
GI50 (EKVX): > 10000 nM
GI50 (SK-MEL-2): > 10000 nM
GI50 (M14): > 10000 nM
GI50 (UACC-257): > 10000 nM
GI50 (U-251): > 10000 nM
GI50 (NCI-H23): > 10000 nM
GI50 (OVCAR-3): > 10000 nM
GI50 (HOP-92): 6630 nM
GI50 (COLO 205): > 10000 nM
GI50 [5]: > 10000 nM
GI50 (ACHN): > 10000 nM
GI50 (OVCAR-8): > 10000 nM

C=C1CCCC(C)(C)C1CCC1(C)CC[C@H]([C@@H](C)C(=O)O)OO1 (single isomer, unassigned) [NAPAPUIN B]
GI50 (CAKI-1): 2000 nM
GI50 (IGROV-1): 630 nM
GI50 (Malme-3M): > 12500 nM
GI50 (SF-539): 3280 nM
GI50 (UO-31): 4310 nM
GI50 (SK-OV-3): 9240 nM
Activity (L1210): 230 Zone units
GI50 (UACC-62): 9240 nM
Activity (P388): 230 Zone units
GI50 (HCC 2998): 6780 nM
GI50 (NCI-H322M): 12500 nM
GI50 (SK-MEL-28): > 12500 nM
GI50 (786-0): 940 nM
GI50 (HL-60(TB)): 1630 nM
GI50 [1]: 3910 nM
GI50 (PC-3): > 12500 nM
GI50 (SNB-75): 3390 nM
GI50 (MOLT-4): 2160 nM
GI50 (KM12): 4820 nM
GI50 (CCRF-CEM): 1760 nM
GI50 (BT-549): 1050 nM
GI50 (SK-MEL-5): 6140 nM
GI50 (A498): > 12500 nM
Activity [2]: 330 Zone units
GI50 (LOX IMVI): 250 nM
GI50 (OVCAR-5): > 12500 nM
GI50 (HCT-116): 5190 nM
GI50 (SF-295): 5440 nM
GI50 [3]: 8780 nM
GI50 (SW-620): 7230 nM
GI50 (HT-29): 9260 nM
GI50 (NCI-H226): 12500 nM
GI50 (MCF7): > 12500 nM
GI50 (A549): 3050 nM
Activity (MC-38): 300 Zone units
GI50 (DU-145): 2710 nM
GI50 (SR): 1800 nM
GI50 (NCI-H522): 1210 nM
GI50 (SNB-19): > 12500 nM
GI50 (RXF 393): 5040 nM
GI50 (NCI-H460): 1830 nM
GI50 (K562): 3300 nM
GI50 (MDA-MB-435): 2690 nM
GI50 (HOP-62): 2110 nM
GI50 (SN12C): 11300 nM
GI50 (MDA-MB-231): 7440 nM
GI50 (OVCAR-4): 2400 nM
GI50 (MDA-N): 3520 nM
GI50 (TK-10): 4060 nM
GI50 (T47D): 3350 nM
GI50 (HCT-15): 10700 nM
GI50 (EKVX): 3190 nM
GI50 (SK-MEL-2): 5060 nM
GI50 (M14): 12200 nM
Activity (CX-1): 200 Zone units
GI50 (UACC-257): > 12500 nM
GI50 (U-251): 4330 nM
GI50 (NCI-H23): 7610 nM
GI50 (OVCAR-3): 2490 nM
GI50 (HOP-92): 2230 nM
GI50 (COLO 205): 8310 nM
GI50 [5]: 8740 nM
GI50 (ACHN): 7830 nM
GI50 (OVCAR-8): > 12500 nM

C=C1CCC[C@H]2[C@](C)(CC[C@]3(C)CC[C@H]([C@@H](C)C(=O)O)OO3)[C@@H](C)CC[C@]12C [SIGMOSCEPTRELLIN A]
GI50 (CAKI-1): 1760 nM
GI50 (IGROV-1): 120 nM
GI50 (Malme-3M): 1200 nM
GI50 (SF-539): 1610 nM
GI50 (UO-31): 1220 nM
GI50 (SK-OV-3): 1570 nM
Activity (L1210): 230 Zone units
GI50 (UACC-62): 2320 nM
Activity (P388): 230 Zone units
GI50 (HCC 2998): 1550 nM
GI50 (NCI-H322M): 1910 nM
GI50 (SK-MEL-28): 3310 nM
GI50 (786-0): 610 nM
GI50 (HL-60(TB)): 140 nM
GI50 [1]: 1710 nM
GI50 (PC-3): 1690 nM
GI50 (SNB-75): 1080 nM
GI50 (MOLT-4): 980 nM
GI50 (KM12): 940 nM
GI50 (CCRF-CEM): 200 nM
GI50 (BT-549): 1810 nM
GI50 (SK-MEL-5): 2680 nM
GI50 (A498): 1930 nM
Activity [2]: 290 Zone units
GI50 (OVCAR-5): 1740 nM
GI50 (HCT-116): 1800 nM
GI50 (SF-295): 1460 nM
GI50 (SW-620): 1570 nM
GI50 (HT-29): 1570 nM
GI50 (NCI-H226): 110 nM
GI50 (MCF7): 1780 nM
GI50 (A549): 1450 nM
Activity (MC-38): 180 Zone units
GI50 (SR): 1130 nM
GI50 (NCI-H522): 120 nM
GI50 (RXF 393): 1220 nM
GI50 (NCI-H460): 1590 nM
GI50 (MDA-MB-435): 1980 nM
GI50 (HOP-62): 1050 nM
GI50 (SN12C): 1780 nM
GI50 (MDA-MB-231): 3710 nM
GI50 (OVCAR-4): 1890 nM
GI50 (MDA-N): 1830 nM
GI50 (T47D): 2000 nM
GI50 (HCT-15): 1890 nM
GI50 (EKVX): 1170 nM
GI50 (SK-MEL-2): 2170 nM
GI50 (M14): 3290 nM
Activity (CX-1): 220 Zone units
GI50 (UACC-257): 3680 nM
GI50 (U-251): 1730 nM
GI50 (NCI-H23): 2020 nM
GI50 (OVCAR-3): 1850 nM
GI50 (HOP-92): 290 nM
GI50 (COLO 205): 2180 nM
GI50 [5]: 1080 nM
GI50 (ACHN): 1380 nM
GI50 (OVCAR-8): 1570 nM
